Data taken from patent US20230144898A1, “INHIBITOR OF ASPARTIC ACID SYNTHESIS IN TUMOR CELLS, INHIBITOR OF SPHEROID FORMATION OF TUMOR CELLS, INHIBITOR OF TUMOR CELL METASTASIS, ACTIVITY ENHANCER OF GLYCOLYTIC INHIBITOR, AND PHARMACEUTICAL COMPOSITION FOR SUPPRESSING AND/OR PREVENTING TUMOR METASTASIS” (CCI HOLDINGS INC., priority 2020, published 2023).

Experiments:
[1] = test system: mitochondria in B16F10 cells; assay: Electron microscope observation of treated cells (Test Example 8); type: cell-based, mouse; details: neopetasin 3 µM, metformin 5000 µM
Protocol: Following the above results, the cells respectively treated with neopetasin (3 µM) and metformin (5000 µM) in the above were observed using an electron microscope. Furthermore, DMSO was administered to the negative control section, and the same experiment was performed.

[2] = test system: KMeC cells (canine malignant melanoma cells); assay: Western blotting of cancer-related proteins, KMeC cells (Test Example 10); type: cell-based; details: 3 µM, 56 hours
Protocol: KMeC cells (canine malignant melanoma cells) were obtained from the Veterinary Surgery Laboratory, Graduate School of Agricultural and Life Sciences, the University of Tokyo. KMeC cells were cultured in an incubator (air/CO2 = 95/5 (v/v)) at 37° C. using RPMI1640 medium.
To start with, each cell was seeded at 0.5×10^5 cells/mL in a six-well plate, and after 24 hours of seeding, neopetasin (final concentration: 3 µM) was suspended in a medium and incubated for 56 hours. […] thus treated with neopetasin (3 µM) for 56 hours were recovered with a cell scraper. Furthermore, DMSO was administered to the negative control section, and the same experiment was performed.
Next, the cells were homogenized in ice-cold lysis buffer (10 mM Tris-HCl (pH 7.4), 1% (w/v) NP-40, 0.1% (w/v) deoxycholic acid, 0.1% (w/v) SDS, 150 mM NaCl, 1 mM EDTA, and 1% (w/v) protease inhibitor cocktail (Sigma-Aldrich) and allowed to stand on ice for 20 minutes. The homogenate was centrifuged at 13,000 rpm for 20 minutes (4° C.), and then the supernatant was collected as a sample for Western blotting. The protein content in the sample was measured using a DC protein assay kit (manufactured by Bio-Rad Laboratories, Inc.). A sample (protein amount of 5 µg) was separated by SDS-PAGE using 10.0 or 12.5% (w/v) polyacrylamide gel, and transferred to a PVDF membrane (PerkinElmer Life Science Co., Ltd). […]

In the case of C=C(C)[C@H]1C[C@@]2(C)C(=CC1=O)CC[C@@H](OC(=O)/C(C)=C\C)[C@@H]2C [Neopetasin, neopetasin], the “influence on mitochondria (electron microscope)” value [1] was “most mitochondria were vacuolated” and the “expression of cancer-related molecules” value [2] was “inhibit a wide range of cancer-related molecules”.
